According to publication PMC7370300, “Deciphering the Binding of Salicylic Acid to Arabidopsis thaliana Chloroplastic GAPDH-A1” (International Journal of Molecular Sciences, 2020):

Legend:
Type in all cases: binding
[1] = molecular target: GAPA1 (chloroplastic glyceraldehyde 3-phosphate dehydrogenase A1) (Arabidopsis thaliana, UniProt P25856, N94G); assay: SPR on immobilised 3-AESA, […] protein; response diminished by […] versus WT
[2] = molecular target: T1, GAPA1 (chloroplastic glyceraldehyde 3-phosphate dehydrogenase A1) (Arabidopsis thaliana, UniProt P25856); assay: SPR (Biacore […]), 3-AESA immobilised via its amino group on CM5 chip, […] Langmuir fit
T1 sequence (P25856 60-396): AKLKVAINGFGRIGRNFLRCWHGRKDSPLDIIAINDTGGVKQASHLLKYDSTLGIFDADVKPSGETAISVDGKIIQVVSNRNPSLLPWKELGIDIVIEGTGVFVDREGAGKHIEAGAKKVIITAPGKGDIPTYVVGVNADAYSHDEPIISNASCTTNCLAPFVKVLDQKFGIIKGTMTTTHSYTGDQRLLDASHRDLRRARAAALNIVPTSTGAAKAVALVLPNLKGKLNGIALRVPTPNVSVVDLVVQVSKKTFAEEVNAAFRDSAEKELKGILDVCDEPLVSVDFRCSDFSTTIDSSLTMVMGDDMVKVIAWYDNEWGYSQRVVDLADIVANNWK

[3] = molecular target: GAPA1 (chloroplastic glyceraldehyde 3-phosphate dehydrogenase A1) (Arabidopsis thaliana, UniProt P25856, W378L); assay: SPR on immobilised 3-AESA
[4] = molecular target: T1, GAPA1 (chloroplastic glyceraldehyde 3-phosphate dehydrogenase A1); assay: SPR competition with immobilised 3-AESA (competition seen from […] NADH)
[5] = molecular target: T1, GAPA1 (chloroplastic glyceraldehyde 3-phosphate dehydrogenase A1); assay: SPR competition with immobilised 3-AESA; also inhibits GAPDH activity of purified GAPA1 ([…] at […])

Chain of GAPA1 (chloroplastic glyceraldehyde 3-phosphate dehydrogenase A1) (Arabidopsis thaliana, UniProt P25856, W378L) (P25856 60-396 W378L): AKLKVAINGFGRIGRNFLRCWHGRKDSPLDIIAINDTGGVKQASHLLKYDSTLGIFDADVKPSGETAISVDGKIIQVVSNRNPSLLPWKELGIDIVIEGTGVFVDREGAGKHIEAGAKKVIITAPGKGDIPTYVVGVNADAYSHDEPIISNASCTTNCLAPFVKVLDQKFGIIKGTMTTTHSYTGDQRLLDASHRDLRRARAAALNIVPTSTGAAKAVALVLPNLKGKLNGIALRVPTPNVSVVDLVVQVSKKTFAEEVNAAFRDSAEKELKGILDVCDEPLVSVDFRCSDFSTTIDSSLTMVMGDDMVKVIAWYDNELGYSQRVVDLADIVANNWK
Chain of GAPA1 (chloroplastic glyceraldehyde 3-phosphate dehydrogenase A1) (Arabidopsis thaliana, UniProt P25856, N94G) (P25856 60-396 N94G): as the sequence (P25856 60-396 W378L) above, with N35G, L319W counted along it

## NCCc1cccc(C(=O)O)c1O [3-AESA, 3-aminoethyl salicylic acid]
[1]
  SPR on immobilised 3-AESA, 50 nM protein; response diminished by 66% versus WT: No complete loss of ability to bind 3-AESA was observed in these mutated proteins.
[2]
  Kd: 16.7 ± 5.7 nM
[3]
  SPR on immobilised 3-AESA: the ability of GAPA1 Trp319Leu to bind 3-AESA was not affected

## NC(=O)C1=CN([C@@H]2O[C@H](COP(=O)(O)OP(=O)(O)OC[C@H]3O[C@@H](n4cnc5c(N)ncnc54)[C@H](O)[C@@H]3O)[C@@H](O)[C@H]2O)C=CC1 [NADH]
[4]
  SPR competition with immobilised 3-AESA (competition seen from 2 μM NADH): pre-incubation of GAPA1 on ice with NADH reduced the level of GAPA1 association with immobilised 3-AESA

## O=C(O)c1ccccc1O [SA, 2-hydroxybenzoic acid]
[5]
  SPR competition with immobilised 3-AESA; also inhibits GAPDH activity of purifie: GAPA1 association with immobilised 3-AESA was inhibited by the presence of SA in a running buffer in a concentration-dependent manner
